Test results: US20060069132A1, “Azolecarboxamide herbicides” (priority 2004, published 2006)

Tests used:
winter barley = experiment: Test C postemergence herbicide test; assay type: in vivo, Hordeum vulgare
Summary of the method: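 Plants were grown to the 1- to 4-leaf stage (2–18 cm) and then treated postemergence, or grown to the 2-leaf stage for the flooded paddy test. They were held in a greenhouse for 12 to 14 days and then scored by eye against controls, where 0 is no effect and 100 is complete control.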

wheat = experiment: Test C postemergence herbicide test; assay type: in vivo, Triticum aestivum
Summary of the method: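 Weeds and wheat were sprayed after emergence, at a height of 2 to 18 cm (1–4 leaves), and paddy barnyardgrass was flooded and treated at two leaves. Assessment took place 12–14 days later in the greenhouse on a 0-to-100 visual control scale. A dash means no result was obtained.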

bermudagrass = experiment: Test E pre-/postemergence herbicide test; assay type: in vivo, Cynodon dactylon; conditions: Preemergence
From the text: (§1) Seeds of plant species selected from bipinnate beggarticks (Bidens bipinnata L.), hairy beggarticks (Bidens radiata Thuill.), bermudagrass (Cynodon dactylon (L.) Pers.), Surinam grass (Urochloa decumbens (Staph) R. D. Webster, previously named Brachiaria decumbens Stapf), large crabgrass (Digitaria sanguinalis (L.) Scop.), green foxtail (Setaria viridis (L.) P. Beauv.), goosegrass (Eleusine indica (L.) Gaertn.), johnsongrass (Sorghum halepense (L.) Pers.), kochia (Kochia scoparia (L.) Schrad.), pitted morningglory (Ipomoea lacunosa L.), purple nutsedge (Cyperus rotundus L.), common ragweed (Ambrosia elatior L.), mustard (Brassica nigra (L.) W. D. J. Koch), guineagrass (Panicum maximum Jacq.), dallisgrass (Paspalum dilatatum Poir.), barnyardgrass (Echinochloa crus-galli (L). P. Beauv.), southern sandbur (Cenchrus echinatus L.), common sowthistle (Sonchus oleraceous L.), prickly sida (Sida spinosa L.), Italian ryegrass (Lolium multiflorum Lam.), common purslane (Portulaca oleracea L.), broadleaf signalgrass (Brachiaria platyphylla (Griseb.) Nash), common groundsel (Senecio vulgaris L.), common chickweed (Stellaria media (L.) Vill/Cyr.), tropical spiderwort (Commelina benghalensis L.), annual bluegrass (Poa annua L.), downy bromegrass (Bromus tectorum L.), itchgrass (Rottboellia cochinchinensis (L.) L.f.), quackgrass (Elytrigia repens (L.) Nevski), Canada horseweed (Erigeron Canadensis L.), field bindweed (Convolvulus arvensis L.), spotted spurge (Euphorbia maculata L.), common mallow (Malva sylvestris (=s silvestris) L.), and Russian thistle (Salsola kali L. ssp. Ruthenica (Iljin) Soo) were planted and treated preemergence with test chemicals formulated in a non-phytotoxic solvent mixture which included a surfactant.
(§2) At the same time, plants selected from these weed species were treated with postemergence applications of some of the test chemicals formulated in the same manner. Plants ranged in height from 2 to 18 cm (1- to 4-leaf stage) for postemergence treatments. Treated plants and controls were maintained in a greenhouse for 12 to 14 days, after which time all species were compared to controls and visually evaluated. Plant response ratings, summarized in Table E, are based on a scale of 0 to 100 where 0 is no effect and 100 is complete control. A dash (-) response means no test result.

Surinam grass = experiment: Test E pre-/postemergence herbicide test; assay type: in vivo, Urochloa decumbens; conditions: Preemergence
From the text: as §1, §2

guineagrass = experiment: Test E pre-/postemergence herbicide test; assay type: in vivo, Panicum maximum; conditions: Preemergence
From the text: as §1, §2

Italian ryegrass = experiment: Test E pre-/postemergence herbicide test; assay type: in vivo, Lolium multiflorum; conditions: Preemergence
From the text: as §1, §2

broadleaf signalgrass = experiment: Test E pre-/postemergence herbicide test; assay type: in vivo, Brachiaria platyphylla; conditions: Preemergence
From the text: as §1, §2

itchgrass = experiment: Test E pre-/postemergence herbicide test; assay type: in vivo, Rottboellia cochinchinensis; conditions: Preemergence
From the text: as §1, §2

quackgrass = experiment: Test E pre-/postemergence herbicide test; assay type: in vivo, Elytrigia repens; conditions: Preemergence
From the text: as §1, §2

[1] = Postemergence, 250 g ai/ha, scale 0 to 100, 0 no effect, 100 complete control
[2] = 250 g ai/ha, scale 0 (no effect) to 100 (complete control)
[3] = 500 g ai/ha, scale 0 (no effect) to 100 (complete control)

CCN1N=C(C(C)(C)C)CC1C(=O)Nc1cc(C(=O)N(C)C)ccc1F (stereo not drawn) [Compound 268, N-[5-[(dimethylamino)carbonyl]-2-fluorophenyl]-3-(1,1-dimethylethyl)-1-ethyl-4,5-dihydro-1H-pyrazole-5-carboxamide]
Plant response rating, Barley, Winter (winter barley; Postemergence, 125 g ai/ha, scale 0 to 100, 0 no effect, 100 complete control): 15
Plant response rating, Barley, Winter (winter barley; [1]): 30
Plant response rating, Barley, Winter (winter barley; postemergence, 31 g ai/ha, scale 0 to 100): 0
Plant response rating, Barley, Winter (winter barley; postemergence, 62 g ai/ha, scale 0 to 100 (0 no effect, 100 complete control)): 0
Plant response rating, Wheat (wheat; [1]): 25
Plant response rating, Wheat (wheat; postemergence, 125 g ai/ha, scale 0 to 100): 0
Plant response rating, Wheat (wheat; postemergence, 62 g ai/ha, scale 0 to 100): 0
Plant response rating, Bermudagrass (bermudagrass; 62 g ai/ha, scale 0 to 100): 60
Plant response rating, Bermudagrass (bermudagrass; 125 g ai/ha, scale 0 to 100): 90
Plant response rating, Bermudagrass (bermudagrass; [2]): 95
Plant response rating, Bermudagrass (bermudagrass; [3]): 100
Plant response rating, Surinam Grass (Surinam grass; 125 g ai/ha, scale 0 to 100): 90
Plant response rating, Surinam Grass (Surinam grass; [3]): 100
Plant response rating, Guineagrass (guineagrass; 62 g ai/ha, scale 0 to 100): 70
Plant response rating, Guineagrass (guineagrass; 125 g ai/ha, scale 0 to 100): 85
Plant response rating, Guineagrass (guineagrass; [2]): 100
Plant response rating, Guineagrass (guineagrass; [3]): 100
Plant response rating, Ryegrass, Italian (Italian ryegrass; 62 g ai/ha, scale 0 to 100): 95
Plant response rating, Ryegrass, Italian (Italian ryegrass; 125 g ai/ha, scale 0 to 100): 95
Plant response rating, Ryegrass, Italian (Italian ryegrass; [2]): 95
Plant response rating, Ryegrass, Italian (Italian ryegrass; [3]): 95
Plant response rating, Signalgrass (broadleaf signalgrass; 62 g ai/ha, scale 0 to 100): 20
Plant response rating, Signalgrass (broadleaf signalgrass; 125 g ai/ha, scale 0 to 100): 60
Plant response rating, Signalgrass (broadleaf signalgrass; [2]): 80
Plant response rating, Signalgrass (broadleaf signalgrass; [3]): 80
Plant response rating, Itchgrass (itchgrass; 62 g ai/ha, scale 0 to 100): 50
Plant response rating, Itchgrass (itchgrass; 125 g ai/ha, scale 0 to 100): 60
Plant response rating, Itchgrass (itchgrass; [2]): 75
Plant response rating, Itchgrass (itchgrass; [3]): 95
Plant response rating, Quackgrass (quackgrass; 62 g ai/ha, scale 0 to 100): 40
Plant response rating, Quackgrass (quackgrass; 125 g ai/ha, scale 0 to 100): 85
Plant response rating, Quackgrass (quackgrass; [2]): 95
Plant response rating, Quackgrass (quackgrass; [3]): 95
